Source: patent publication US20030195240A1, “Pharmaceutical compositions comprising proton pump inhibitors and gastrin/cholecystokinin receptor ligands” (priority 2000, published 2003)

Test system: ECL cells
Assay: labelling index of ECL cells (HDC+PCNA double labelling) in oxyntic mucosa after 14 days once-daily treatment
Assay type: in vivo, male SPF Wistar rats
Settings: rats, 25 mg/kg p.o. once daily for 14 days; compared with control group
Procedure: This was measured according to the following experimental protocol. 40 male SPF Wistar rats (200 g) were divided into 4 treatment groups and 2 strata. The treatment of the 20 rats in the second stratum started 2 weeks after the treatment of the first stratum. The design of the study was completely randomised double blind with individual blinding; all rats were placed in a separate cage. Animals had continuous access to water and food. Animals were treated once daily during 14 days: [table] After removal of the fundus, the stomach were rinsed with phosphate buffered saline prior to fixation with 4% formalin in Millonig buffer. After 4 hours immersion in fixative solutions at room temperature, tissue was rinsed in phosphate buffered saline (PBS), dehydrated and embedded in paraffin using the Leitz paraffin embedding station (Leitz TP 1050; Germany) dehydration module and paraffin embedding module (Leitz EG 1160; Germany). Cross sections (3 μm thick) of the oxyntic part of the stomach were made at 3 levels, each separated by a distance of 400 μm. The following indirect immunofluorescence labeling method was used: removal of paraffin and rehydratation of the sections followed by a blocking step primary antibodies: polyclonal guinea pig anti-histidine decarboxylase, 1/2000 (from Euro-Diagnostica) and monoclonal mouse anti PCNA 1/2500 (Clone PC10 from Sigma). […]

Compound: COCCCOc1ccnc(C[S+]([O-])c2nc3ccccc3[nH]2)c1C (stereo not shown) [rebeprazole, 2-[[4-(3-methoxypropoxy)-3-methylpyridin-2-yl]methylsulfinyl]-1H-benzimidazole]
- labelling index of ECL cells, Mann-Whitney test P, treated group versus control group: 0.04
